This note sets out measurements from PubChem BioAssay AID330 (DTP/NCI, 2004).

“And” between values parts separate entries of the source, which are not always exact repeats. Equal values may be shown once. Toxic doses and inconclusive results are not listed.

For this experiment, the system named is P388 leukemia ip, CD2F1 mice, survival T/C. As to the kind of experiment: NCI In Vivo Anticancer Drug Screen. Data for tumor model P388 Leukemia (intraperitoneal) in CD2F1 (CDF1) mice. Conditions: endpoint: median survival time, higher = longer survival. The gist of the method: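 Mice carrying the transplanted tumor received test compound or vehicle. Survival was recorded in each group, and the value is the treated-group measurement divided by that of the vehicle-treated control group.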

Setting [1] is: dose: 50.0 mg/kg/injection, schedule: Q01DX009 (ip), vehicle: saline.
The mark [2] stands for this setting: dose: 100.0 mg/kg/injection, schedule: Q01DX009 (ip), vehicle: saline.
Setting [3] is: dose: 200.0 mg/kg/injection, schedule: Q01DX009 (ip), vehicle: saline.
The mark [4] stands for this setting: dose: 50.0 mg/kg/injection, schedule: Q01DX009 (ip), vehicle: saline with Tween-80.
The mark [5] stands for this setting: dose: 100.0 mg/kg/injection, schedule: Q01DX009 (ip), vehicle: saline with Tween-80.
[6] abbreviates: dose: 100.0 mg/kg/injection, schedule: Q04DX003 (ip), vehicle: saline with Tween-80.
Setting [7] is: dose: 200.0 mg/kg/injection, schedule: Q04DX003 (ip), vehicle: saline with Tween-80.
The mark [8] stands for this setting: dose: 400.0 mg/kg/injection, schedule: Q04DX003 (ip), vehicle: saline with Tween-80.
Setting [9] is: dose: 50.0 mg/kg/injection, schedule: Q01DX005 (ip), vehicle: Klucel (hydroxypropylcellulose) (HPC).
[10] abbreviates: dose: 100.0 mg/kg/injection, schedule: Q01DX005 (ip), vehicle: Klucel (hydroxypropylcellulose) (HPC).
Setting [11] is: dose: 200.0 mg/kg/injection, schedule: Q01DX005 (ip), vehicle: Klucel (hydroxypropylcellulose) (HPC).
[12] abbreviates: dose: 25.0 mg/kg/injection, schedule: Q01DX009 (ip), vehicle: saline with Tween-80.
The mark [13] stands for this setting: dose: 200.0 mg/kg/injection, schedule: Q01DX009 (ip), vehicle: saline with Tween-80.

Turning to `COc1cc2c(=O)n(C)c3ccccc3c2cc1OC`, the T/C (dose: 25.0 mg/kg/injection, schedule: Q01DX009 (ip), vehicle: other) is 91 % of control; the T/C (dose: 50.0 mg/kg/injection, schedule: Q01DX009 (ip), vehicle: other) was 90 % of control; the T/C (dose: 100.0 mg/kg/injection, schedule: Q01DX009 (ip), vehicle: other) is 91 % of control; the T/C (dose: 200.0 mg/kg/injection, schedule: Q01DX009 (ip), vehicle: other) is 93 % of control; the T/C (dose: 400.0 mg/kg/injection, schedule: Q01DX009 (ip), vehicle: other) is 99 % of control.
Consider `COC(=O)C1=NOC(COc2ccc([N+](=O)[O-])cc2)C1` (centres undefined), for which the T/C is, setting by setting: (dose: 60.0 mg/kg/injection, schedule: Q01DX005 (ip), vehicle: saline with Tween-80) 100 % of control; (dose: 120.0 mg/kg/injection, schedule: Q01DX005 (ip), vehicle: saline with Tween-80) 93 % of control; (dose: 240.0 mg/kg/injection, schedule: Q01DX005 (ip), vehicle: saline with Tween-80) 86 % of control.
`CC1C(=O)C(C)C(c2ccc([N+](=O)[O-])cc2)OC1c1ccccc1` (centres undefined): the T/C was 96 % of control (dose: 50.0 mg/kg/injection, schedule: Q01DX001 (ip), vehicle: suspension in saline); 100 % of control (dose: 100.0 mg/kg/injection, schedule: Q01DX001 (ip), vehicle: suspension in saline); 102 % of control (dose: 200.0 mg/kg/injection, schedule: Q01DX001 (ip), vehicle: suspension in saline).
Consider `O=C(N/N=C/c1ccccc1[OH2+])c1ccncc1.O=S(=O)([O-])[O-].[Fe+2]`, for which the T/C runs as follows: (dose: 100.0 mg/kg/injection, schedule: Q01DX001 (ip), vehicle: Klucel (hydroxypropylcellulose) (HPC)) 94 % of control; (dose: 200.0 mg/kg/injection, schedule: Q01DX001 (ip), vehicle: Klucel (hydroxypropylcellulose) (HPC)) 92 % of control.
With `CC(=O)OCC/C(SC(C)=O)=C(/C)N(C=O)Cc1cnc(C)nc1N`, the T/C reads like this: under setting [1], 98 % of control; under setting [2], 94 % of control; under setting [3], 100 % of control.
Take `CCCCc1ccc(C)c(O)c1`: the T/C is 110 % of control under setting [4] and 98 % of control under setting [5].
`CC1(C)CC(=O)C=C(OS(=O)(=O)C(F)(F)F)C1`: the T/C (dose: 12.5 mg/kg/injection, schedule: Q01DX009 (ip), vehicle: distilled water + Tween-80) was 111 % of control; the T/C (dose: 25.0 mg/kg/injection, schedule: Q01DX009 (ip), vehicle: distilled water + Tween-80) was 112 % of control; the T/C (dose: 50.0 mg/kg/injection, schedule: Q01DX009 (ip), vehicle: distilled water + Tween-80) is 98 % of control.
As to `O=C1CSC(c2ccc(Cl)cc2)N1CCN1C(=O)CSC1c1ccc(Cl)cc1` (centres undefined), the T/C by setting is: under setting [6], 95 % of control; under setting [7], 93 % of control; under setting [8], 88 % of control.
Regarding `CC1(C)S[C@@H]2[C@H](NC(=O)C3(N)CCCCC3)C(=O)N2[C@H]1C(=O)O`, the T/C is 103 % of control under setting [9], 103 % of control under setting [10] and 102 % of control under setting [11].
As for `CCCOc1ccc(-c2nc(-c3ccc(N=Cc4ccc(N(CCOS(C)(=O)=O)CCOS(C)(=O)=O)cc4C)cc3)cs2)cc1`, the T/C (dose: 3.12 mg/kg/injection, schedule: Q01DX009 (ip), vehicle: saline with Tween-80) was 160 % of control; the T/C (dose: 6.25 mg/kg/injection, schedule: Q01DX009 (ip), vehicle: saline with Tween-80) was 180 % of control; the T/C (dose: 12.5 mg/kg/injection, schedule: Q01DX009 (ip), vehicle: saline with Tween-80) is 156 % of control and 166 % of control and 197 % of control; the T/C under setting [12] was 164 % of control; the T/C under setting [4] was 110 % of control and 118 % of control.
In the case of `C1CCC2(CC1)NCCO2`, the T/C by setting is: (dose: 25.0 mg/kg/injection, schedule: Q01DX005 (ip), vehicle: suspension in saline) 98 % of control; (dose: 50.0 mg/kg/injection, schedule: Q01DX005 (ip), vehicle: suspension in saline) 93 % of control; (dose: 100.0 mg/kg/injection, schedule: Q01DX005 (ip), vehicle: suspension in saline) 94 % of control; (dose: 200.0 mg/kg/injection, schedule: Q01DX005 (ip), vehicle: suspension in saline) 109 % of control; (dose: 400.0 mg/kg/injection, schedule: Q01DX005 (ip), vehicle: suspension in saline) 98 % of control.
With `COC(=O)/C(=C\c1ccncc1)c1cccc2ccccc12`, the T/C under setting [12] is 101 % of control, the T/C under setting [4] is 98 % of control, the T/C under setting [5] is 104 % of control and the T/C under setting [13] was 99 % of control.
As to `[CH3][Ge]([CH3])([CH3])[N]=S=[N][Ge]([CH3])([CH3])[CH3]`, the T/C was 105 % of control (dose: 12.5 mg/kg/injection, schedule: Q01DX005 (ip), vehicle: saline with Tween-80); 100 % of control (dose: 25.0 mg/kg/injection, schedule: Q01DX005 (ip), vehicle: saline with Tween-80); 99 % of control and 100 % of control (dose: 50.0 mg/kg/injection, schedule: Q01DX005 (ip), vehicle: saline with Tween-80).
In the case of `O=C1NC(=O)C(c2ccccc2)(c2ccc(O)cc2)N1` (centres undefined), the T/C under setting [6] was 115 % of control, the T/C under setting [7] is 110 % of control and the T/C under setting [8] was 115 % of control.
Turning to `O=NNc1nc(-c2ccccn2)nc2ccccc12`, the T/C is, setting by setting: (dose: 3.12 mg/kg/injection, schedule: Q01DX009 (ip), vehicle: DMSO) 109 % of control; (dose: 6.25 mg/kg/injection, schedule: Q01DX009 (ip), vehicle: DMSO) 94 % of control; (dose: 12.5 mg/kg/injection, schedule: Q01DX009 (ip), vehicle: DMSO) 105 % of control; (dose: 25.0 mg/kg/injection, schedule: Q01DX009 (ip), vehicle: DMSO) 102 % of control.
Regarding `COC(=O)CCSC(=O)NC1CCCCC1`, the T/C was 102 % of control under setting [9], 107 % of control under setting [10] and 102 % of control under setting [11].
For the molecule `C/C(=N\NC(N)=S)c1cccc(/C(C)=N/NC(N)=S)n1`, the T/C reads like this: (dose: 12.5 mg/kg/injection, schedule: Q04DX003 (ip), vehicle: saline with Tween-80) 91 % of control; (dose: 25.0 mg/kg/injection, schedule: Q04DX003 (ip), vehicle: saline with Tween-80) 93 % of control; (dose: 50.0 mg/kg/injection, schedule: Q04DX003 (ip), vehicle: saline with Tween-80) 89 % of control.
Consider `O=C1C(N2CC2)=C(N2CC2)C(=O)C(N2CC2)=C1N1CC1`, for which the T/C by setting is: (dose: 1.8 micrograms/kg/injection, schedule: Q01DX009 (ip), vehicle: saline) 110 % of control; (dose: 2.7 micrograms/kg/injection, schedule: Q01DX009 (ip), vehicle: saline) 115 % of control; (dose: 4.0 micrograms/kg/injection, schedule: Q01DX009 (ip), vehicle: saline) 112 % of control.
Regarding `Fc1cccc2c(SCCCCCCSc3c4ccccc4nc4c(F)cccc34)c3ccccc3nc12`, the T/C runs as follows: (dose: 60.0 mg/kg/injection, schedule: Q01DX005 (ip), vehicle: Klucel (hydroxypropylcellulose) (HPC)) 89 % of control; (dose: 120.0 mg/kg/injection, schedule: Q01DX005 (ip), vehicle: Klucel (hydroxypropylcellulose) (HPC)) 89 % of control; (dose: 240.0 mg/kg/injection, schedule: Q01DX005 (ip), vehicle: Klucel (hydroxypropylcellulose) (HPC)) 90 % of control.
Consider `CCNC1CCC(Nc2ccnc3cc(Cl)ccc23)CC1` (centres undefined), for which the T/C under setting [9] is 95 % of control and the T/C under setting [10] is 87 % of control.
With `CC1C(=O)C(C)C(c2ccc(Cl)cc2)OC1c1ccc(Cl)cc1` (centres undefined), the T/C under setting [1] is 112 % of control, the T/C under setting [2] is 103 % of control and the T/C under setting [3] is 114 % of control.
With `COc1ccc(OC(C)C(=O)O)cc1` (centres undefined), the T/C is 101 % of control under setting [9], 98 % of control under setting [10] and 95 % of control under setting [11].
Regarding `CCOC1OCN(CCc2ccccc2)CC1(C)C` (centres undefined), the T/C by setting is: under setting [4], 108 % of control; under setting [5], 119 % of control; under setting [13], 118 % of control.
